In US20230339851A1, “CXCR6 SULFONAMIDE COMPOUNDS” (CHEMOCENTRYX, INC., priority 2022, published 2023):

Biological target: T1, human CXCR6 (Homo sapiens, UniProt O00574)
T1 construct: expressed in transfected cells
Assay: Radioligand Binding Assay (125I-CXCL16 displacement)
Settings: L1.2 cells stably transfected with human CXCR6 cDNA, 0.1 nM 125I-CXCL16, 4° C., three-hour incubation; read-out: Potency (IC50)
Procedure, shortened: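 Displacement of 0.1 nM 125I-CXCL16 from human CXCR6 stably expressed in L1.2 cells was measured after a 3 h, 4 °C incubation in HBSS with 0.1% BSA. Filter-bound cpm were counted, and IC50 values came from a 3-parameter nonlinear fit.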

T1 sequence (O00574 whole entry): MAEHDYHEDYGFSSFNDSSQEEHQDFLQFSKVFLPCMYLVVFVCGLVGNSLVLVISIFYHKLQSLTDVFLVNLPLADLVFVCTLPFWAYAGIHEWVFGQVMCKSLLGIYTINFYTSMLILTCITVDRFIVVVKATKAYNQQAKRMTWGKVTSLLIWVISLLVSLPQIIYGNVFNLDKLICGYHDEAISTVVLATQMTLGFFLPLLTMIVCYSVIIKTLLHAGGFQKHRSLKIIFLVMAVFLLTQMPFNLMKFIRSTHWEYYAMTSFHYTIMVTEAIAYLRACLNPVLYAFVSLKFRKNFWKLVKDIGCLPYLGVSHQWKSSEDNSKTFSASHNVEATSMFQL

SMILES | IC50
CCOc1cc(NC(=O)[C@@H]2COC[C@@H]2O)ccc1S(=O)(=O)Nc1cccc(OC(F)(F)F)c1 (racemic) [Example 1.010] | 200 to 750 nM
COc1cc(NC(=O)C2CCCCC2)ccc1S(=O)(=O)Nc1cccc(C(F)(F)F)c1 [Example 1.008] | 2000 to 20000 nM
Cc1cc(NC(=O)C2CCCCC2)ccc1S(=O)(=O)Nc1cccc(C(F)(F)F)c1 [Example 1.575] | 750 to 2000 nM
COc1c(S(=O)(=O)Nc2cccc(OC(F)(F)F)c2)ccc(NC(=O)c2ccnn2C)c1C [Example 1.203] | 2000 to 20000 nM
COc1cc(NC(=O)[C@@H](O)C(C)C)ccc1S(=O)(=O)Nc1cccc(OC(F)(F)F)c1 [Example 1.438] | ≤ 200 nM
CCOc1cc(NC(=O)C2CC=CC[C@H]2N)ccc1S(=O)(=O)Nc1cccc(OC(F)(F)F)c1 (mixture of isomers) [Example 1.026] | 750 to 2000 nM
CCOc1cc(NC(=O)[C@@H](CO)C(C)C)ccc1S(=O)(=O)Nc1ccc(C)c(C(C)C)c1 [Example 1.057] | ≤ 200 nM
CCOc1cc(NC(=O)[C@H]2CC[C@](C)(O)CC2)ccc1S(=O)(=O)Nc1cccc(OC(F)(F)F)c1 [Example 1.227] | 750 to 2000 nM
CCOc1cc(NC(=O)[C@@H](O)C(C)C)ccc1S(=O)(=O)Nc1cccc(OC)c1C [Example 1.290] | 750 to 2000 nM
COc1cc(NC(=O)C2CC3C=CC2O3)ccc1S(=O)(=O)Nc1cccc(OC(F)(F)F)c1 (stereo not drawn) [Example 1.370] | 750 to 2000 nM
CCOc1cc(NC(=O)C2CCNCC2)ccc1S(=O)(=O)Nc1cccc(OC(F)(F)F)c1 [Example 1.427] | 2000 to 20000 nM
COc1cc(NC(=O)C2CC3CCC2O3)ccc1S(=O)(=O)Nc1cccc(OC(F)(F)F)c1 (stereo not drawn) [Example 1.360] | 200 to 750 nM
CCOc1cc(NC(=O)[C@H]2CC(C)=C(C)C[C@@H]2C(=O)O)ccc1S(=O)(=O)Nc1cccc(OC(F)(F)F)c1 [Example 1.096] | ≤ 200 nM
CCOc1cc(NC(=O)C2CCCN(C(=O)OC(C)(C)C)C2)ccc1S(=O)(=O)Nc1cccc(OC(F)(F)F)c1 (stereo not drawn) [Example 1.458] | 2000 to 20000 nM
CCOc1cc(NC(=O)[C@@H](CO)c2ccccc2)ccc1S(=O)(=O)Nc1cccc(C(C)(C)C)c1 [Example 1.170] | ≤ 200 nM
COc1cc(NC(=O)c2ccnn2C)ccc1S(=O)(=O)Nc1ccccc1OC(F)(F)F [Example 1.016] | 2000 to 20000 nM
CCOc1cc(NC(=O)[C@@H](CO)C(C)CC)ccc1S(=O)(=O)Nc1cccc(OC(F)(F)F)c1 (stereo partly drawn) [Example 1.297] | ≤ 200 nM
CCOc1cc(NC(=O)C2CCNC(=O)C2)ccc1S(=O)(=O)Nc1cccc(OC(F)(F)F)c1 (stereo not drawn) [Example 1.475] | 2000 to 20000 nM
O=C(Nc1ccc(S(=O)(=O)Nc2cccc(OC(F)(F)F)c2)c(F)c1)C(CO)c1ccccc1 (stereo not drawn) [Example 1.395] | 750 to 2000 nM
CCOc1cc(NC(=O)C(O)C2CCCC2)ccc1S(=O)(=O)Nc1cccc(OC(F)(F)F)c1 (stereo not drawn) [Example 1.177] | ≤ 200 nM
CCOc1cc(NC(=O)c2ccnn2C)ccc1S(=O)(=O)Nc1cccc(OC(F)(F)F)c1 [Example 1.157] | ≤ 200 nM
Cc1cc(NC(=O)c2c(C)noc2C)ccc1S(=O)(=O)Nc1cccc(C(F)(F)F)c1 [Example 1.325] | 2000 to 20000 nM
CCOc1cc(NC(=O)[C@@H](CO)c2ccccc2)ccc1S(=O)(=O)Nc1cccc(OC(F)(F)F)c1 [Example 1.536] | ≤ 200 nM
CCOC(=O)C(C(=O)Nc1ccc(S(=O)(=O)Nc2cccc(OC(F)(F)F)c2)c(OCC)c1)C1CCCC1 (stereo not drawn) [Example 1.144] | ≤ 200 nM
